The structures appear in SMILES notation.

Data on two molecules can be found in patent US8569279B2, “Method for modulating claudin mediated functions” (Sucampo AG, priority 2008, dated 2013).

Experiment [1] relates to epithelial tight junction, mouse intestine (jejunum mucosa). As to the kind of experiment: Tissue conductance and dilution potentials in normal mouse intestines after Compound A in drinking water. Type of experiment: in vivo. As to conditions: male C57BL/6 mice, 10 μM in drinking water for 7 to 14 days, jejunum mucosa in chamber, FIG. 1. How it is done: (Method) Male C57BL/6 mice (7-8 weeks old) were administered with 10 μM Compound A in the drinking water and fed standard diet for 7 to 14 days. During the period, the mice could drink the water freely. At the conclusion of this period, the mice were sacrificed and the intestines were removed. Approximately 5 cm sections were cut from tip of the jejunum. The intestine section was opened from ventral side, and then it was washed several Limes with Ringer solution. The mucosa of the intestine was carefully stripped from the serosa using forceps. The mucosa was mounted in a standard chamber (5 mm in diameter of exposed surface area) and bathed with buffer solution. Transepithelial short-circuit current (Isc) was measured and total tissue conductance was determined by measuring the current deflections resulting from a 1 mV/min transepithelial pulse and applying Ohm's law. When stable measurement of Isc was achieved, the buffer solution was replaced with potassium-free solution. The solution in the luminal bath were then replaced with the solution containing […], 150 mM LiCl, 150 mM KCl, 75 mM MgCl2 and 75 mM CaCl2, in turn, and dilution potentials in each solution were measured.

Another experiment deals with claudin-15 protein. In words: Expression of claudin proteins in mouse intestine (immunofluorescence staining). It is filed as in vivo. As to conditions: 10 μM in drinking water for 7 to 14 days, immunofluorescence staining of frozen slices, FIG. 2. The protocol: (Method) Treatment of mice and removal of intestine were conducted by similar way mentioned above. The removed intestine was frozen in liquid nitrogen and frozen slices were prepared. Expressions and intracellular distribution of claudin-15 protein were determined with immunofluorescence staining. […] (Conclusion) Continuous administration of Compound A caused expression changes of tight junction proteins, such as the decrease of claudin-15 which induces changes of electrophysiological property of the tight junction. Decrease of the expression of claudin-15 in the tight junction resulted to enhance the tightness of the tight junction and strengthen the epithelial sheet against toxic substances.

For experiment [2], the system named is skin ulcer and/or bedsore animal model, db/db mice. As to the kind of experiment: Skin ulcer healing in genetically-diabetic mice (db/db mice). Type of experiment: in vivo, mouse. As to conditions: topical twice a day for 12 days; for Ulcer area, %: Day 13 relative to Day 1, mean ± standard error, control 70.0 ± 5.7. The text has this: Female BKS.Cg−+Lepr^db/+Lepr^db/Jcl mice (db/db mice, SPF; CLEA Japan, Inc.), genetically-diabetic mice, were used for the present study. After the removal of the dorsal hair, the skin covering an area of 1.5×1.5 cm centered on the dorsal median was excised using ophthalmic scissors under anesthesia to make a skin ulcer and/or bedsore animal model. Then the excised skin area (ulcer area) was covered with porous film dressing measuring 4×4 cm. The dosing preparation was applied to the ulcer area at a dosage volume of 0.1 mL per site. The application was performed twice a day for 12 days from the day of preparation of the ulcers. Compound B: (−)-7-{(2R,4aR,5R,7aR)-2-[(3S)-1,1-difluoro-3-methylpentyl]-2-hydroxy-6-oxooctahydrocyclopenta[b]pyran-5-yl}heptanoic acid at 10 or 30 micro-g/site was applied to the ulcer per time. The same volume of the vehicle (physiological saline solution containing 1% polysorbate 80: 1% PS80) was applied to the animals in the control group. The day of the start of the application was defined as Day 1. On the Day 1 and Day 13, the frontal edge of the epidermis or the regeneration epidermis of each ulcer was traced on a plastic sheet. The traced ulcer area was measured with an area-line meter. The ulcer area (%) on Day 13 was calculated on the basis of the ulcer area on Day 1. Group mean values with standard errors were calculated for ulcer area (%).

As to `CCCCC(F)(F)[C@@]1(O)CC[C@H]2[C@@H](CC(=O)[C@@H]2CCCCCCC(=O)O)O1` [Compound A, (−)-7-[(2R,4aR,5R,7aR)-2-(1,1-Difluoropentyl)-2-hydroxy-6-oxooctahydrocyclopenta[b]pyran-5-yl]heptanoic acid], in experiment [1], the “dilution potential of univalent cations compared to no-treatment group” value is recorded as “decrease” and the “total tissue conductance compared to no-treatment group” value is reported as “decrease”. For the same molecule, the “expression of claudin-15 protein” value in the experiment with claudin-15 protein is reported as “decreased”.
Turning to `CC[C@H](C)CC(F)(F)[C@@]1(O)CC[C@H]2[C@@H](CC(=O)[C@@H]2CCCCCCC(=O)O)O1` [Compound B, (−)-7-{(2R,4aR,5R,7aR)-2-[(3S)-1,1-difluoro-3-methylpentyl]-2-hydroxy-6-oxooctahydrocyclopenta[b]pyran-5-yl}heptanoic acid], the “ulcer healing as compared to the control group” value in experiment [2] (10 and 30 micro-g/site) is recorded as “significantly accelerated the ulcer healing”. For the same molecule, the “Ulcer area, %” value turned out to be 43.1 ± 4.2 % in experiment [2] (10 micro-g/site) and 41.1 ± 3.1 % in experiment [2] (30 micro-g/site).
